Measured values: US12060349B2, “Glucosylceramide synthase inhibitors” (Genzyme Corporation, priority 2012, dated 2024)
Read-outs that look alike come from different tables or passages of the source.

Key:
C32 human melanoma cells = experiment: cell viability in the C32 cell-based assay (Viability, C32 IC50); conditions: concentration causing 50% cell death, values greater than 10 represent a lack of cell death
Outline: (§1)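 Viability readouts were run alongside the GM3 cell-surface assay in the same B16 and C32 cultures. A figure above 10 indicates no cell death.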

[1] = target: T1, glucosylceramide synthase (Homo sapiens, UniProt Q16739); experiment: microsomal assay measuring conversion of ceramide to glucosylceramide by HPLC (GCS IC50); type: biochemical; conditions: concentration causing 50% inhibition of glucosylceramide synthase activity
T1 construct: Microsomes were isolated from A375 human melanoma cells; endogenous in cells; host or cells: A375 human melanoma cells (microsomal fraction, 100,000 g pellet)
T1 sequence (Q16739 1-394): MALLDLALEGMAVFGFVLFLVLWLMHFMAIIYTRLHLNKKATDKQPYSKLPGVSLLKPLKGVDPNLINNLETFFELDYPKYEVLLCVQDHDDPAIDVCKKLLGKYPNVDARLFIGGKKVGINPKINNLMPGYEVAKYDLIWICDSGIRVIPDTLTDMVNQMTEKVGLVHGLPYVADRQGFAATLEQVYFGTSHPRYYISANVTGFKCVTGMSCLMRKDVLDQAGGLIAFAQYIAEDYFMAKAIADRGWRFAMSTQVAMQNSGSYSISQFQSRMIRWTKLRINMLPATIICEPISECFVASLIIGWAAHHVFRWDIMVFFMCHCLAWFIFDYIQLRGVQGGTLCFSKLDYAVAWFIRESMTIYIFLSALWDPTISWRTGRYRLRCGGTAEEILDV
Outline: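 IC50 is the compound concentration halving glucosylceramide synthase activity. Activity was measured in microsomes, with HPLC quantifying glucosylceramide formed from ceramide.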

[2] = test system: GM3 expression on the cell surface, C32 human melanoma cells; experiment: cell based phenotypic assay, cell surface GM3 by antibody mediated immunofluorescence, C32 (GM3 C32 IC50); conditions: 50% inhibition of GM3 expression on the cell surface
Outline: (§2)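 B16 mouse and C32 human melanoma cells; cell-surface GM3 measured by antibody-mediated immunofluorescence, giving IC50.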

B16 mouse melanoma cells = experiment: cell viability in the B16 cell-based assay (Viability, B16 IC50); conditions: Mus musculus
Outline: as §1

[3] = test system: GM3 expression on the cell surface, B16 mouse melanoma cells; experiment: cell based phenotypic assay, cell surface GM3 by antibody mediated immunofluorescence, B16 (GM3 B16 IC50); conditions: 50% inhibition of GM3 expression on the cell surface
Outline: as §2

[4] = Homo sapiens, C32, C32 cells, read-out: Viability, C32 IC50
[5] = Homo sapiens, C32 human melanoma cells, read-out: GM3 C32 IC50
[6] = B16, B16 cells, concentration causing 50% cell death, values greater than 10 represent a lack of cell death, read-out: Viability, B16 IC50
[7] = Mus musculus, B16 mouse melanoma cells, read-out: GM3 B16 IC50

Structure (SMILES) | IC50 (C32 human melanoma cells; [4]) | IC50 [1] | IC50 [2, 5] | IC50 (B16 mouse melanoma cells; [6]) | IC50 [3, 7] | IC50 (C32 human melanoma cells; Homo sapiens, C32, read-out: Viability, C32 IC50, C32 cells) | IC50 ([2]; Homo sapiens, read-out: GM3 C32 IC50, C32 human melanoma cells) | IC50 (B16 mouse melanoma cells; B16, read-out: Viability, B16 IC50) | IC50 ([3]; Mus musculus, read-out: GM3 B16 IC50, B16 mouse melanoma cells) | IC50 (C32 human melanoma cells; C32 cells, read-out: Viability, C32 IC50) | IC50 ([2]; C32 human melanoma cells, read-out: GM3 C32 IC50) | IC50 ([3]; B16 mouse melanoma cells, read-out: GM3 B16 IC50)
CCCC1(NC(=O)NC(C)(C)C#Cc2ccc(COC)cc2)CN2CCC1CC2 (centres unmarked) [Example 328, 1-(4-(4-(Methoxymethyl)phenyl)-2-methylbut-3-yn-2-yl)-3-(3-propylquinuclidin-3-yl)urea] | 3.16 µM | 0.0251 µM | 0.00332 µM | 3.16 µM | 0.115 µM |  |  |  |  |  |  | 
CCC1(NC(=O)NC(C)(C)C#Cc2ccc(COC)cc2)CN2CCC1CC2 (centres unmarked) [Example 327, 1-(3-Ethylquinuclidin-3-yl)-3-(4-(4-(methoxymethyl)phenyl)-2-methylbut-3-yn-2-yl)urea] | ≥ 10 µM | 0.0962 µM | 0.0147 µM | ≥ 10 µM | 0.343 µM |  |  |  |  |  |  | 
C[C@@H]1CN(C(=O)NC2(C)CCN3CCC2CC3)CCN1c1ncc(Oc2ccc(F)cc2)cn1 (stereo partly drawn) [Example 152, (3R)-4-(5-(4-Fluorophenoxy)pyrimidin-2-yl)-3-methyl-N-(4-methyl-1-azabicyclo[3.2.2]nonan-4-yl)piperazine-1-carboxamide] | 0.316 µM | 0.00288 µM | 0.000439 µM | 6.77 µM | 0.0763 µM |  |  |  |  |  |  | 
CC1(NC(=O)C2CCN(c3ncnc(-c4ccc(F)cc4)n3)CC2)CCN2CCC1CC2 (centres unmarked) [Example 50, 1-(4-(4-Fluorophenyl)-1,3,5-triazin-2-yl)-N-(4-methyl-1-azabicyclo[3.2.2]nonan-4-yl)piperidine-4-carboxamide] | 3.16 µM | 0.0325 µM | 0.000708 µM | ≥ 10 µM | 0.162 µM |  |  |  |  |  |  | 
CC(C)(NC(=O)OC1CCN2CCC1CC2)c1cccc(Oc2cccc(C(=O)N3CCOCC3)c2)c1 (centres unmarked) [Example 278, 1-Aza-bicyclo[3.2.2]nonan-4-yl 2-(3-(3-(morpholine-4-carbonyl)phenoxy)phenyl)propan-2-ylcarbamate] | ≥ 10 µM | 0.593 µM | 0.053 µM | ≥ 10 µM | 1.44 µM |  |  |  |  |  |  | 
COCCOCc1ccc(-c2ccc(C3(NC(=O)N[C@@]4(C)CN5CCC4CC5)CC3)cc2)cc1 [Example 211, (R)-1-(1-(4′-((2-Methoxyethoxy)methyl)-[1,1′-biphenyl]-4-yl)cyclopropyl)-3-(3-methylquinuclidin-3-yl)urea] | 3.16 µM | 0.938 µM | 0.072 µM | ≥ 10 µM | 0.683 µM |  |  |  |  |  |  | 
COCCOc1cccc(-c2ccc(C(C)(C)NC(=O)OC3CCN4CCC3CC4)cc2)c1 (centres unmarked) [Example 168, 1-Azabicyclo[3.2.2]nonan-4-yl (2-(3′-(2-methoxyethoxy)-[1,1′-biphenyl]-4-yl)propan-2-yl)carbamate] | 1 µM | 0.00556 µM | 0.00334 µM | ≥ 10 µM | 0.0793 µM |  |  |  |  |  |  | 
COCCCOc1cnc(-c2cccc(C(C)(C)NC(=O)OC3CN4CCC3CC4)c2)cn1 (centres unmarked) [Example 315, Quinuclidin-3-yl (2-(3-(5-(3-methoxypropoxy)pyrazin-2-yl)phenyl)propan-2-yl)carbamate] |  | 0.197 µM |  |  |  | 1 µM | 0.0259 µM | ≥ 10 µM | 0.435 µM |  |  | 
COCc1ccc(-c2ccnc(N3CCC(F)(C(=O)NC4(C)CCN5CCC4CC5)CC3)n2)cc1 (centres unmarked) [Example 75, 4-Fluoro-1-(4-(4-(methoxymethyl)phenyl)pyrimidin-2-yl)-N-(4-methyl-1-azabicyclo[3.2.2]nonan-4-yl)piperidine-4-carboxamide] | 0.316 µM | 0.00283 µM | 0.000383 µM | 5.27 µM | 0.0489 µM |  |  |  |  |  |  | 
CNC(=O)c1ccc(Oc2ccc(C(C)(C)NC(=O)OC3CCN4CCC3CC4)cc2)cc1 (centres unmarked) [Example 292, 1-Aza-bicyclo[3.2.2]nonan-4-yl 2-(4-(4-(methylcarbamoyl)phenoxy)phenyl)propan-2-ylcarbamate] | ≥ 10 µM | 0.207 µM | 0.0412 µM | ≥ 10 µM | 1.22 µM |  |  |  |  |  |  | 
COCCOc1ccc(-c2ccnc(N3CCC(C(=O)NC4(C)CCN5CCC4CC5)CC3)n2)cc1 (centres unmarked) [Example 66, 1-(4-(4-(2-Methoxyethoxy)phenyl)pyrimidin-2-yl)-N-(4-methyl-1-azabicyclo[3.2.2]nonan-4-yl)piperidine-4-carboxamide] | 0.215 µM | 0.00317 µM | 0.000329 µM | 8.2 µM | 0.0693 µM |  |  |  |  |  |  | 
COCCCc1ccc(-c2ccc(C3(NC(=O)OC4CCN5CCC4CC5)CC3)cc2)cc1 (centres unmarked) [Example 212, 1-Azabicyclo[3.2.2]nonan-4-yl (1-(4′-(3-methoxypropyl)-[1,1′-biphenyl]-4-yl)cyclopropyl)carbamate] | ≥ 10 µM | 0.00385 µM | 0.00253 µM | 6.36 µM | 0.0479 µM |  |  |  |  |  |  | 
COCCOCc1ccc(-c2ccnc(N3CCC(F)(C(=O)NC4(C)CN5CCC4CC5)CC3)n2)cc1 (centres unmarked) [Example 83, 4-Fluoro-1-(4-(4-((2-methoxyethoxy)methyl)phenyl)pyrimidin-2-yl)-N-(3-methylquinuclidin-3-yl)piperidine-4-carboxamide] | 1 µM | 0.0134 µM | 0.00113 µM | ≥ 10 µM | 0.119 µM |  |  |  |  |  |  | 
CCCC1(NC(=O)NC(C)(C)c2ccc(-c3ccc(S(=O)(=O)CCCOC)cc3)cc2)CN2CCC1CC2 (centres unmarked) [Example 244, 1-(2-(4′-((3-Methoxypropyl)sulfonyl)-[1,1′-biphenyl]-4-yl)propan-2-yl)-3-(3-propylquinuclidin-3-yl)urea] | 3.16 µM | 0.0371 µM | 0.00699 µM | ≥ 10 µM | 0.0341 µM |  |  |  |  |  |  | 
CC1CN(C(=O)NC2(C)CCN3CCC2CC3)CCN1c1nccc(-c2ccc(F)cc2)n1 (centres unmarked) [Example 145, 4-(4-(4-Fluorophenyl)pyrimidin-2-yl)-3-methyl-N-(4-methyl-1-azabicyclo[3.2.2]nonan-4-yl)piperazine-1-carboxamide] | 0.316 µM | 0.00801 µM | 0.000507 µM | 6.98 µM | 0.0763 µM |  |  |  |  |  |  | 
CCC1(NC(=O)NC2(c3ccc(-c4ccc(COCCOC)cc4)cc3)CC2)CN2CCC1CC2 (single isomer, unassigned) [Example 208, 1-(3-Ethylquinuclidin-3-yl)-3-(1-(4′-((2-methoxyethoxy)methyl)-[1,1′-biphenyl]-4-yl)cyclopropyl)urea] |  | 2.71 µM |  | ≥ 10 µM |  |  |  |  |  | ≥ 10 µM | 0.0739 µM | 0.988 µM
CC1CN(C(=O)NC2(C)CCN3CCC2CC3)CCN1c1nccc(-c2ccccc2)n1 (centres unmarked) [Example 141, 3-Methyl-N-(4-methyl-1-azabicyclo[3.2.2]nonan-4-yl)-4-(4-phenylpyrimidin-2-yl)piperazine-1-carboxamide] | 0.316 µM | 0.00596 µM | 0.000888 µM | 4.67 µM | 0.209 µM |  |  |  |  |  |  | 
CC1(NC(=O)C2CCN(c3cccc(-c4ccccc4)c3)CC2)CCN2CCC1CC2 (centres unmarked) [Example 36, 1-([1,1′-Biphenyl]-3-yl)-N-(4-methyl-1-azabicyclo[3.2.2]nonan-4-yl)piperidine-4-carboxamide] | 1 µM | 0.0103 µM | 0.0025 µM | 7.57 µM | 0.136 µM |  |  |  |  |  |  | 
COCCCOc1ccc(-c2nc(C(C)(C)NC(=O)N3CCN4CCC3CC4)cs2)cc1 [Example 342, N-(2-(2-(4-(3-Methoxypropoxy)phenyl)thiazol-4-yl)propan-2-yl)-1,4-diazabicyclo[3.2.2]nonane-4-carboxamide] | ≥ 10 µM | 0.666 µM | 0.0851 µM | ≥ 10 µM | 0.393 µM |  |  |  |  |  |  | 
